System: DU-145 cells
Type: cell-based, human

C=C1[C@@H](C)[C@H]2[C@H](Cc3ccccc3)NC(=O)[C@]23[C@H](OC(C)=O)/C=C/[C@@](C)(O)C(=O)[C@@H](C)C/C=C/[C@H]3[C@@H]1O [Cytochalasin-D]
Relative Wound Density at 24 Hours, Mean: 3.3 ± 0.2 | Relative Wound Density at 24 Hours, Percent Relative to Media: 4% | effect on cell migration (in words): did not migrate

Source: patent publication US20110110911A1 (priority 2009, published 2011)
